Here are results for 13 substances from patent publication US11419918B2, “Treatment of biliary cirrhosis based on oxyntomodulin analogue GLP-1R/GCGR dual-target agonist peptide” (Shenzhen Turier Biotech Co., Ltd., priority 2017, dated 2022).

In assay [1] the test system is human hepatic stellate cells (LX-2). Description: In vitro inhibition of hepatic fibrosis: expression of activation marker α-SMA in LX-2 cells (Western Blot, β-actin internal reference). The assay is classed as cell-based. As to conditions: 10.0 μM, 48 hours, negative control (PBS) = 100%. The method, then: Hepatic stellate cell strain LX-2 was selected to study and observe the effect of different doses of test substances on the expression of LX-2 cell activation marker α-SMA. Hepatic stellate cell LX-2 was laid on 35 mm cell culture plate, cultured with DMEM (high glucose)+10% FBS+1% double-antibody culture medium (Thermo Fisher), placed overnight when the cells grew to 70% convergence at 37° C. and under the condition of 5% CO2, and treated with the above GLP-1R/GCGR dual target agonist polypeptides 1-48 (dissolved in PBS) for 48 hours the next day morning to extract cell protein, carry out Western Blot, and take β-actin as internal reference and analyze the expression quantities of α-SMA and β-actin by a gray level of Image J 1.50i. PBS with the same volume as that in experimental group was added in negative control. […] The integrating gray level of α-SMA/β-actin in the negative control group was 100% to analyze the in vitro inhibition activity of hepatic fibrosis of tested polypeptide.
Background: In western blotting, separated proteins are transferred to a membrane and probed.

Assay [2] has as its system BDL-induced cholestasis hepatic fibrosis in rats. Nature of the assay: Bile duct ligation (BDL)-induced hepatic fibrosis in rats (biliary cirrhosis rat model). Type of assay: in vivo, SD rats. Particulars: 50 μg/kg subcutaneous every two days, 14 days. The method, then:
1. Experimental Drugs: polypeptide compounds 3, 6, 7, 10, 17, 20, 37, 38, 39, 40, 44, 46, Obeticholic Acid (Abbr. OCA, CAS:459789-99-2, purchased from Zhejiang Warrant Pharmaceutical Co., Ltd.) and Liraglutide. Saving condition was −20° C.
128 male SD rats with body weight of 200-230 g were randomly divided into sixteen groups, which were respectively:
SD rats with body weight of 200-230 g at SPF level were provided by Lanzhou University Laboratory Animal Center. After rats were quarantined in the room (SPF environment) for one week, model rat and rat in sham-operated group were subject to intraperitoneal injection and anesthesia with 0.6% pentobarbital sodium solution, and operation was performed on a super clean bench after anesthesia. Bilateral ligation was conducted on model rat after the common bile duct was separated, and ligation was not conducted on rat in sham-operated group, but only the common bile duct was separated. Administration was started from the next day of the operation.
Administration was started from the first day of the operation, and subcutaneous injection of compounds 3, 6, 7, 10, 17, 20, 37, 38, 39, 40, 44, 46 and Liraglutide with 50 μg/kg was performed every two days; intraperitoneal injection for the Obeticholic Acid administration group with 7.5 mg/kg was performed every day; as for the normal saline group, injection was performed every day. During the administration, changes in vital signs of rats were observed every day.
After the end of two weeks of administration cycle (14 days), the rats were killed to collect materials for subsequent biological determination experiments. The livers were taken out for HE dye, Sirius Red dye and IHC dye. Image-pro plus and Graph pad software were used for statistics.

Numbered stars: 1 amine (or outer) side, 2 acyl side, 3 side chain; on linkers, the order of the positions; unused ones are H or OH. Square brackets hold non-standard residues; d marks the D form. Primed or numbered codes have the meaning given here. Side chains are listed from the residue outwards. Ends that are not written are not given here. * marks the point of attachment. C18 diacid = O=C(O)CCCCCCCCCCCCCCCCC(=O)*; C16 diacid = O=C(O)CCCCCCCCCCCCCCC(=O)*; γGlu = O=C(O)[C@H](CCC(=O)[*:2])N[*:1]; Stearoyl = CCCCCCCCCCCCCCCCCC(=O)*; Palmitoyl = CCCCCCCCCCCCCCCC(=O)*; PEG2′ = not defined here; Aib = CC(C)(N)C(=O)O

Regarding “His-(D-Ser)-Gln-Gly-Thr-Phe-Thr-Ser-Asp-Tyr-Ser-Lys(PEG2-PEG2-CO(CH2)16CH3)-Lys-Leu-Asp-Aib-Arg-Arg-Ala-Gln-Asp-Phe-Val-Gln-Trp-Leu-Met-Asn-Thr-Gly-Gly-Pro-Ser-Ser-Gly-Ala-Pro-Pro-Pro-Ser-NH2 (H[dS]QGTFTSDYSK([PEG2′-PEG2′-Stearoyl])KLD[Aib]RRAQDFVQWLMNTGGPSSGAPPPS-NH2) [Compound 3]”, the “Relative expression of α-SMA (α-SMA/β-actin, %)” value in assay [1] is given as 32.25%. Further, in assay [2], the “ALT in the serum (FIG. 6)” value is listed as “significantly inhibit”; the “BDL-induced hepatic fibrosis and inflammation (HE, Sirius Red, IHC sections)” value is listed as “significantly reduce”; the “collagenous fiber deposition in liver (Sirius Red dyed sections, FIGS. 2, 4)” value (“collagenous fiber deposition in liver” below) is on record as “significantly inhibit”; the “content of hydroxyproline of the liver (FIG. 7)” value (shortened to “content”) is “significantly inhibit”. Further, the “α-SMA in liver (IHC dyed sections, FIGS. 3, 5)” value (“α-SMA in liver” below) in assay [2] is listed as “significantly inhibit”.

As to “His-(D-Ser)-Gln-Gly-Thr-Phe-Thr-Ser-Asp-Tyr-Ser-Lys-Tyr-Leu-Asp-Ser-Lys(PEG2-PEG2-γGlu-CO(CH2)16CO2H)-Ala-Ala-His-Asp-Phe-Val-Glu-Trp-Leu-Leu-Arg-Ala-NH2 (H[dS]QGTFTSDYSKYLDSK([PEG2′-PEG2′-γGlu-C18 diacid])AAHDFVEWLLRA-NH2) [Compound 17]”, the “Relative expression of α-SMA (α-SMA/β-actin, %)” value in assay [1] worked out at 35.38%. Further, in assay [2], the “ALT in the serum (FIG. 6)” value was “significantly inhibit”; the “BDL-induced hepatic fibrosis and inflammation (HE, Sirius Red, IHC sections)” value was “significantly reduce”; the “collagenous fiber deposition in liver” value is “significantly inhibit”; the “content” value is reported as “significantly inhibit”. Further, the “α-SMA in liver” value in assay [2] is “significantly inhibit”.

Turning to “His-(D-Ser)-Gln-Gly-Thr-Phe-Thr-Ser-Asp-Tyr-Ser-Lys-Tyr-Leu-Asp-Lys(PEG2-PEG2-γGlu-CO(CH2)14CH3)-Arg-Arg-Ala-Gln-Asp-Phe-Val-Gln-Trp-Leu-Met-Asn-Thr-Gly-Gly-Pro-Ser-Ser-Gly-Ala-Pro-Pro-Pro-Ser-NH2 (H[dS]QGTFTSDYSKYLDK([PEG2′-PEG2′-γGlu-Palmitoyl])RRAQDFVQWLMNTGGPSSGAPPPS-NH2) [Compound 6]”, the “Relative expression of α-SMA (α-SMA/β-actin, %)” value in assay [1] turned out to be 29.19%. Moreover, in assay [2], the “ALT in the serum (FIG. 6)” value is on record as “significantly inhibit”; the “BDL-induced hepatic fibrosis and inflammation (HE, Sirius Red, IHC sections)” value is recorded as “significantly reduce”; the “collagenous fiber deposition in liver” value is on record as “significantly inhibit”; the “content” value is recorded as “significantly inhibit”. The “α-SMA in liver” value in assay [2] is recorded as “significantly inhibit”.

As for “His-(D-Ser)-Gln-Gly-Thr-Phe-Thr-Ser-Asp-Lys(PEG2-PEG2-CO(CH2)14CH3)-Ser-Lys-Tyr-Leu-Asp-Aib-Arg-Arg-Ala-Gln-Asp-Phe-Val-Gln-Trp-Leu-Leu-Asn-Thr-Gly-Gly-Pro-Ser-Ser-Gly-Ala-Pro-Pro-Pro-Ser-NH2 (H[dS]QGTFTSDK([PEG2′-PEG2′-Palmitoyl])SKYLD[Aib]RRAQDFVQWLLNTGGPSSGAPPPS-NH2) [Compound 44]”, the “Relative expression of α-SMA (α-SMA/β-actin, %)” value in assay [1] amounted to 39.19%. Moreover, in assay [2], the “ALT in the serum (FIG. 6)” value is “significantly inhibit”; the “BDL-induced hepatic fibrosis and inflammation (HE, Sirius Red, IHC sections)” value was “significantly reduce”; the “collagenous fiber deposition in liver” value is given as “significantly inhibit”; the “content” value was “significantly inhibit”. The “α-SMA in liver” value in assay [2] was “significantly inhibit”.

As for “His-Aib-Gln-Gly-Thr-Phe-Thr-Ser-Asp-Lys(PEG2-PEG2-γGlu-CO(CH2)14CO2H)-Ser-Lys-Tyr-Leu-Asp-Aib-Arg-Arg-Ala-Gln-Asp-Phe-Val-Gln-Trp-Leu-Leu-Asp-Gly-Gly-Pro-Ser-Ser-Gly-Ala-Pro-Pro-Pro-Ser-NH2 (H[Aib]QGTFTSDK([PEG2′-PEG2′-γGlu-C16 diacid])SKYLD[Aib]RRAQDFVQWLLDGGPSSGAPPPS-NH2) [Compound 11]”, in assay [1], the “Relative expression of α-SMA (α-SMA/β-actin, %)” value stood at 41.78%.

On to “His-Aib-Gln-Gly-Thr-Phe-Thr-Ser-Asp-Lys(PEG2-PEG2-γGlu-CO(CH2)16CO2H)-Ser-Lys-Tyr-Leu-Asp-Glu-Arg-Arg-Ala-Gln-Asp-Phe-Val-Gln-Trp-Leu-Leu-Asp-Gly-Gly-Pro-Ser-Ser-Gly-Ala-Pro-Pro-Pro-Ser-NH2 (H[Aib]QGTFTSDK([PEG2′-PEG2′-γGlu-C18 diacid])SKYLDERRAQDFVQWLLDGGPSSGAPPPS-NH2) [Compound 15]”, for which, in assay [1], the “Relative expression of α-SMA (α-SMA/β-actin, %)” value was determined as 57.29%.

For the substance “His-(D-Ser)-Gln-Gly-Thr-Phe-Thr-Ser-Asp-Tyr-Ser-Lys-Tyr-Leu-Asp-Lys(PEG2-PEG2-γGlu-CO(CH2)16CH3)-Arg-Arg-Ala-Gln-Asp-Phe-Val-Gln-Trp-Leu-Met-Asn-Thr-Gly-Gly-Pro-Ser-Ser-Gly-Ala-Pro-Pro-Pro-Ser-NH2 (H[dS]QGTFTSDYSKYLDK([PEG2′-PEG2′-γGlu-Stearoyl])RRAQDFVQWLMNTGGPSSGAPPPS-NH2) [Compound 36]”, the “Relative expression of α-SMA (α-SMA/β-actin, %)” value in assay [1] worked out at 42.49%.

For “His-(D-Ser)-Gln-Gly-Thr-Phe-Thr-Ser-Asp-Lys(PEG2-PEG2-CO(CH2)16CH3)-Ser-Lys-Tyr-Leu-Asp-Aib-Arg-Arg-Ala-Gln-Asp-Phe-Val-Gln-Trp-Leu-Met-Asn-Thr-Gly-Gly-Pro-Ser-Ser-Gly-Ala-Pro-Pro-Pro-Ser-NH2 (H[dS]QGTFTSDK([PEG2′-PEG2′-Stearoyl])SKYLD[Aib]RRAQDFVQWLMNTGGPSSGAPPPS-NH2) [Compound 32]”, the “Relative expression of α-SMA (α-SMA/β-actin, %)” value in assay [1] turned out to be 37.14%.

On to “His-Aib-Gln-Gly-Thr-Phe-Thr-Ser-Asp-Lys(PEG2-PEG2-γGlu-CO(CH2)14CH3)-Ser-Lys-Tyr-Leu-Asp-Glu-Arg-Arg-Ala-Gln-Asp-Phe-Val-Gln-Trp-Leu-Leu-Asp-Gly-Gly-Pro-Ser-Ser-Gly-Ala-Pro-Pro-Pro-Ser-NH2 (H[Aib]QGTFTSDK([PEG2′-PEG2′-γGlu-Palmitoyl])SKYLDERRAQDFVQWLLDGGPSSGAPPPS-NH2) [Compound 16]”, for which the “Relative expression of α-SMA (α-SMA/β-actin, %)” value in assay [1] amounted to 40.35%.

For the substance “His-(D-Ser)-Gln-Gly-Thr-Phe-Thr-Ser-Asp-Tyr-Ser-Lys-Tyr-Leu-Asp-Glu-Lys-Ala-Ala-Lys(PEG2-PEG2-γGlu-CO(CH2)16CO2H)-Glu-Phe-Ile-Glu-Trp-Leu-Leu-Asn-Gly-Gly-Pro-Ser-Ser-Gly-Ala-Pro-Pro-Pro-Ser-NH2 (H[dS]QGTFTSDYSKYLDEKAAK([PEG2′-PEG2′-γGlu-C18 diacid])EFIEWLLNGGPSSGAPPPS-NH2) [Compound 26]”, the “Relative expression of α-SMA (α-SMA/β-actin, %)” value in assay [1] was 44.44%.

As for “His-(D-Ser)-Gln-Gly-Thr-Phe-Thr-Ser-Asp-Lys(PEG)-PEG2-γGlu-CO(CH2)14CH3)-Ser-Lys-Tyr-Leu-Asp-Aib-Arg-Arg-Ala-Gln-Asp-Phe-Val-Gln-Trp-Leu-Met-Asn-Thr-Gly-Gly-Pro-Ser-Ser-Gly-Ala-Pro-Pro-Pro-Ser-NH2 (H[dS]QGTFTSDKSKYLD[Aib]RRAQDFVQWLMNTGGPSSGAPPPS-NH2; not fully specified (residue 10); printed as His-(D-Ser)-Gln-Gly-Thr-Phe-Thr-Ser-Asp-Lys(PEG2-PEG2-γGln-CO(CH2)14CH3)-Ser-Lys-Tyr-Leu-Asp-Aib-Arg-Arg-Ala-Gln-Asp-Phe-Val-Gln-Trp-Leu-Met-Asn-Thr-Gly-Gly-Pro-Ser-Ser-Gly-Ala-Pro-Pro-Pro-Ser-NH2; also: first PEG unit on Lys10 of unstated size) [Compound 4]”, the “Relative expression of α-SMA (α-SMA/β-actin, %)” value in assay [1] is 33.50%.

Consider “His-(D-Ser)-Gln-Gly-Thr-Phe-Thr-Ser-Asp-Lys(PEG2-PEG2-γGlu-CO(CH2)16CO2H)-Ser-Lys-Tyr-Leu-Asp-Aib-Arg-Arg-Ala-Gln-Asp-Phe-Val-Gln-Trp-Leu-Leu-Asn-Thr-Gly-Gly-Pro-Ser-Ser-Gly-Ala-Pro-Pro-Pro-Ser-NH2 (H[dS]QGTFTSDK([PEG2′-PEG2′-γGlu-C18 diacid])SKYLD[Aib]RRAQDFVQWLLNTGGPSSGAPPPS-NH2) [Compound 47]”, for which, in assay [1], the “Relative expression of α-SMA (α-SMA/β-actin, %)” value worked out at 40.36%.

For “His-(D-Ser)-Gln-Gly-Thr-Phe-Thr-Ser-Asp-Tyr-Ser-Lys-Tyr-Leu-Asp-Glu-Lys-Ala-Ala-Lys(PEG2-PEG2-γGlu-CO(CH2)16CH3)-Glu-Phe-Ile-Glu-Trp-Leu-Leu-Arg-Ala-NH2 (H[dS]QGTFTSDYSKYLDEKAAK([PEG2′-PEG2′-γGlu-Stearoyl])EFIEWLLRA-NH2) [Compound 24]”, in assay [1], the “Relative expression of α-SMA (α-SMA/β-actin, %)” value is 32.42%.
